Assay results reported in the supplement of paper PMC8967900.

Tests used:
Assay in all cases: selective drug sensitivity score (sDSS, relative to normal bone marrow) (sDSS (score)); higher = more potent and effective on the cell line relative to normal bone marrow cells
Details in all cases: 72 h
COG-LL-319h = tested on: COG-LL-319h
697 = tested on: 697
SUP-B15 = tested on: SUP-B15
NALM-16 = tested on: NALM-16
KOPN-8 = tested on: KOPN-8
MHH-CALL-2 = tested on: MHH-CALL-2
P12-ICHIKAWA = tested on: P12-ICHIKAWA
TMD5 = tested on: TMD5
NALM-6 = tested on: NALM-6
ALL-PO = tested on: ALL-PO
COG-LL-402h = tested on: COG-LL-402h
KASUMI-10 = tested on: KASUMI-10
DND-41 = tested on: DND-41
KARPAS-45 = tested on: KARPAS-45
SEM cells = tested on: SEM cells
REH = tested on: REH
NALL-1 = tested on: NALL-1
CCRF-HSB2 = tested on: CCRF-HSB2
RCH-ACV = tested on: RCH-ACV
MOLT-4 = tested on: MOLT-4
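Note: ALL cell lines in 384-well plates, five doses spanning 10,000-fold, each plate scaled between vehicle and 100 µmol/L benzalkonium chloride controls, sDSS an adapted area-under-curve metric.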

Structure (SMILES)	selective drug sensitivity score (COG-LL-319h)	selective drug sensitivity score 697	selective drug sensitivity score (SUP-B15)	selective drug sensitivity score (NALM-16)	selective drug sensitivity score (KOPN-8)	selective drug sensitivity score (MHH-CALL-2)	selective drug sensitivity score (P12-ICHIKAWA)	selective drug sensitivity score (TMD5)	selective drug sensitivity score (NALM-6)	selective drug sensitivity score (ALL-PO)	selective drug sensitivity score (COG-LL-402h)	selective drug sensitivity score (KASUMI-10)	selective drug sensitivity score (DND-41)	selective drug sensitivity score (KARPAS-45)	selective drug sensitivity score (SEM cells)	selective drug sensitivity score (REH)	selective drug sensitivity score (NALL-1)	selective drug sensitivity score (CCRF-HSB2)	selective drug sensitivity score (RCH-ACV)	selective drug sensitivity score (MOLT-4)
CC[C@@H](C(=O)[C@@H](C)[C@@H](O)[C@H](C)[C@@H]1O[C@@H]([C@@H](CC)C(=O)O)CC[C@@H]1C)[C@H]1O[C@]2(C=C[C@@H](O)[C@]3(CC[C@@](C)([C@H]4CC[C@](O)(CC)[C@H](C)O4)O3)O2)[C@H](C)C[C@@H]1C [Salinomycin] (top concentration 50000 nM)	-0.8	-0.9	-11.1	0.3	-8.4	10.8	-2	1.1	-4.9	-13.2	-4	1.8	4.7	5.4	-5.8	-13	2.2	0.9	-15.4	-5.3
COc1cccc2c1C(=O)c1c(O)c3c(c(O)c1C2=O)C[C@@](O)(C(C)=O)C[C@@H]3O[C@H]1C[C@H](N)[C@H](O)[C@H](C)O1 [Daunorubicin] (top concentration 1000 nM)	16.4	9.06	11.9	-2.14	6.56	6.16	6.96	1.86	6.36	-0.34	15.8	9.06	-0.54	-0.34	6.06	6.16	-4.04	12.5	12.6	7.86
CO[C@H]1C[C@@H]2CC[C@@H](C)[C@@](O)(O2)C(=O)C(=O)N2CCCC[C@H]2C(=O)O[C@H]([C@H](C)C[C@@H]2CC[C@@H](OP(C)(C)=O)[C@H](OC)C2)CC(=O)[C@H](C)/C=C(\C)[C@@H](O)[C@@H](OC)C(=O)[C@H](C)C[C@H](C)/C=C/C=C/C=C/1C [Ridaforolimus] (top concentration 100 nM)	4.76	12.5	8.96	-0.04	22.2	-2.24	-0.94	-4.84	-4.84	2.66	4.66	-4.84	-2.54	1.56	5.66	6.96	-4.44	7.46	18.9	-2.04
O[C@H]1CC[C@H](Nc2ncc3nc(Nc4c(F)cc(F)cc4F)n([C@H]4CCOC4)c3n2)CC1 [Tanzisertib] (top concentration 10000 nM)	0	0	0	1.2	1.4	0.9	0	0	0	1.9	0	0	0	0	0	0	0	0.2	0	0
CC(C)Oc1ccc(C(=O)N[C@H](CNC(=O)CN(C)C)Cc2ccc(-c3cn4cccc([C@H](C)O)c4n3)cc2)cc1Cl (top concentration 10000 nM)	14.3	19.9	14.8	1.68	14.2	8.58	7.28	5.18	7.68	6.88	10.6	6.88	-2.62	7.48	8.88	12.1	9.88	11	18	18.2
Oc1nc(-c2ccc(C(F)(F)F)cc2)nc2c1CSCC2 [XAV939] (top concentration 10000 nM)	-0.14	-0.14	-0.14	-0.14	0.66	0.26	-0.14	-0.14	-0.14	0.06	0.16	-0.14	-0.14	-0.14	0.56	-0.04	-0.14	0.36	0.06	-0.14
